Measurements reported in patent publication US20230338609A1, “MEDICAL DEVICES AND MATERIALS COMPRISING BIODEGRADABLE POLYESTERS” (AMICOAT AS, priority 2020, published 2023).
≈ marks a conversion by molar mass, not a printed value.

How the values were obtained:
P. aeruginosa = conditions: Table 5
[1] = system: Propionibacterium acnes- antibiotic-susceptible clinical isolate; test: MIC microbroth dilution (CLSI); assay type: cell-based; conditions: P. acnes antibiotic-susceptible
Experimental: Supplemented Brucella broth (SBB) was used for the anaerobic strains with an inoculum of approximately 10^6 CFU/mL. SBB is a broth consisting of 1% peptone, 0.5% ‘Lab-lemco’, 1% glucose and 0.5% sodium chloride supplemented with 5 […] vitamin K (both obtained from Sigma Aldrich Ltd.)

[2] = system: Cryptococcus neoformans - G.R. Micro collection; assay type: cell-based
Experimental: (§1) Yeast and filamentous fungal MIC were performed in MOPS buffered RPMI 1640 medium (MOPS buffer obtained from Sigma Aldrich Ltd., RPMI 1640 obtained from Invitrogen Ltd, Paisley, Scotland). The yeast inocula were in the range 7.5×10^2-4×10^3 CFU/mL and the filamentous fungi approximately 8×10^3-1×10^5 CFU/mL

[3] = system: Trichophyton interdigitale - G.R. Micro collection; assay type: cell-based
Experimental: as §1

[4] = system: Candida tropicalis ATCC750 - reference strain; assay type: cell-based
Experimental: as §1

[5] = system: Aspergillus niger - G.R. Micro collection; assay type: cell-based
Experimental: as §1

[6] = system: Trichophyton mentagrophytes - G.R. Micro collection; assay type: cell-based
Experimental: as §1

[7] = system: Candida albicans ATCC90028 - reference strain; assay type: cell-based
Experimental: as §1

[8] = system: Candida albicans ATCC24433 - reference strain; assay type: cell-based
Experimental: as §1

[9] = system: Candida parapsilosis ATCC90018 - reference strain; assay type: cell-based
Experimental: as §1

[10] = system: Microsporum canis - G.R. Micro collection; assay type: cell-based
Experimental: as §1

E. coli = conditions: Table 5
[11] = system: Staphylococcus aureus FDA486; test: Murine skin infection model, topical treatment; assay type: in vivo; conditions: mice; 2% cream; three treatments at three hourly intervals; biopsy three hours after last
Experimental: (§2) The skin of mice was infected with Staphylococcus aureus or Streptococcus pyogenes and subsequently given a total of three treatments at three hourly intervals. Three hours after the last treatment, skin biopsies were collected and the number of colony forming units (CFUs) present in the skin sample was determined. Results are shown in FIGS. 1 and 2, expressed as the number of colony forming units per mouse.
as §2, with “3, 4” for “1”, “5” for “2,”

[12] = system: Streptococcus bovis - macrolide-resistant clinical isolate; assay type: cell-based
Excerpt: (§3) Cation-adjusted Mueller-Hinton broth (Oxoid Ltd., Basingstoke, UK and Trek Diagnostic Systems Ltd., East Grinstead, UK) (supplemented with 5% laked horse blood for Streptococcus spp., Corynebacterium jeikeium and Listeria monocytogenes) was used for aerobic bacteria, with an initial inoculum of approximately 10^5 colony-forming units (CFU)/mL.

[13] = system: Enterobacter sp - multi-drug resistant clinical isolate; assay type: cell-based
Excerpt: as §3

[14] = system: Streptococcus pyogenes - Macrolide (MLS) resistant clinical isolate; assay type: cell-based
Excerpt: as §3

[15] = system: Staphylococcus aureus - methicillin-resistant clinical isolate; assay type: cell-based
Excerpt: as §3

[16] = system: Staphylococcus epidermidis methicillin-resistant clinical isolate; assay type: cell-based
Excerpt: as §3

[17] = system: Enterococcus faecium vancomycin-susceptible clinical isolate; assay type: cell-based
Excerpt: as §3

[18] = system: Enterococcus faecalis vancomycin-susceptible clinical isolate; assay type: cell-based
Excerpt: as §3

[19] = system: Streptococcus pneumoniae - penicillin-susceptible clinical isolate; assay type: cell-based
Excerpt: as §3

[20] = system: Group G Streptococcus - antibiotic-susceptible clinical isolate; assay type: cell-based
Excerpt: as §3

[21] = system: EMRSA16 Staphylococcus aureus (MRSA) - SSCmec type 2; assay type: cell-based; conditions: EMRSA16 - SSCmec type 2
Excerpt: as §3

[22] = system: Staphylococcus aureus ATCC 43300 - methicillin-resistant control strain; assay type: cell-based
Excerpt: as §3

[23] = system: Klebsiella aerogenes - multi-drug resistant clinical isolate; assay type: cell-based
Excerpt: as §3

[24] = system: EMRSA15 Staphylococcus aureus (MRSA) - SSCmec type 4; assay type: cell-based; conditions: EMRSA15 - SSCmec type 4
Excerpt: as §3

[25] = system: Escherichia coli ATCC32518 - β-lactamase positive type strain; assay type: cell-based
Excerpt: as §3

[26] = system: HT2001254 Staphylococcus aureus (MRSA) - PVL positive; assay type: cell-based
Excerpt: as §3

[27] = system: Escherichia coli - multi-drug resistant clinical isolate; assay type: cell-based
Excerpt: as §3

[28] = system: Listeria monocytogenes - antibiotic-susceptible clinical isolate; assay type: cell-based
Excerpt: as §3

[29] = system: EMRSA3 Staphylococcus aureus (MRSA) - SSCmec type 1; assay type: cell-based; conditions: EMRSA3 - SSCmec type 1
Excerpt: as §3

[30] = system: Staphylococcus aureus, strain ATCC 25923; conditions: ATCC 25923

CCCCCCNC(=O)[C@H](CCCNC(=N)N)NC(=O)[C@H](Cc1c(C(C)(C)C)[nH]c2c(C(C)(C)C)cc(C(C)(C)C)cc12)NC(=O)[C@@H](N)CCCNC(=N)N [Compound 8] was tested, and the “P. aeruginosa (MIC)” value (P. aeruginosa) was 5 µg/mL, the MIC [1] was 4 µg/mL (≈ 5.21 µM) and the MIC [2] was 2 µg/mL (≈ 2.6 µM). It also gave an MIC [3] of 4 µg/mL (≈ 5.21 µM), an MIC [4] of 4 µg/mL (≈ 5.21 µM) and an MIC [5] of 4 µg/mL (≈ 5.21 µM). The MIC [6] was 4 µg/mL (≈ 5.21 µM), the MIC [7] was 4 µg/mL (≈ 5.21 µM) and the MIC [8] was 8 µg/mL (≈ 10.4 µM). For the same compound, the MIC [9] was 8 µg/mL (≈ 10.4 µM), the MIC [10] was 4 µg/mL (≈ 5.21 µM) and the “E. coli (MIC)” value (E. coli) was 5 µg/mL. The “number of CFUs in skin biopsy vs controls” value [11] was “more effective at reducing the number of CFUs than the placebo and fucidin or bactroban”, the MIC [12] was 2 µg/mL (≈ 2.6 µM) and the MIC [13] was 8 µg/mL (≈ 10.4 µM). It also gave an MIC [14] of 8 µg/mL (≈ 10.4 µM), an MIC [15] of 4 µg/mL (≈ 5.21 µM) and an MIC [16] of 2 µg/mL (≈ 2.6 µM). The MIC [17] was 4 µg/mL (≈ 5.21 µM), the MIC [18] was 4 µg/mL (≈ 5.21 µM) and the MIC [19] was 8 µg/mL (≈ 10.4 µM). For the same compound, the MIC [20] was 8 µg/mL (≈ 10.4 µM), the MIC [21] was 4 µg/mL (≈ 5.21 µM) and the MIC [22] was 4 µg/mL (≈ 5.21 µM). It also gave an MIC [23] of 8 µg/mL (≈ 10.4 µM), an MIC [24] of 4 µg/mL (≈ 5.21 µM) and an MIC [25] of 8 µg/mL (≈ 10.4 µM). It also gave an MIC [26] of 4 µg/mL (≈ 5.21 µM), an MIC [27] of 8 µg/mL (≈ 10.4 µM) and an MIC [28] of 8 µg/mL (≈ 10.4 µM). The MIC [29] was 4 µg/mL (≈ 5.21 µM) and the “S. aureus (MIC)” value [30] was 2 µg/mL.
